Measured values: patent US4123518A, “Insecticidal phosphate ester-based solid composition with depot gas action” (priority 1974, dated 1978)

Tests used:
[1] = system: flies of the species Musca domestica; experiment: Percentage of flies lying on their backs after one hour, shaped pieces in a 40 m^3 room (Example 9); assay type: in vivo; settings: shaped piece of Example 5 (Thio-DDVP) or 5a (DDVP)
Experimental: One shaped piece produced according to Example 5 and one shaped piece produced according to Example 5a were each pushed into a net-like quiver and suspended from the ceiling in the center of identical rooms of 40 m^3 cubic capacity. Immediately thereafter (0), and after 4, 8 and 12 weeks, 200 flies of the species Musca domestica were in each case exposed in the rooms. […] In each case, the percentage of animals which had fallen on their backs was determined 1 hour after exposing the flies.

[2] = system: male rats; experiment: Acute inhalation toxicity, male rats (4 hours' exposure); assay type: in vivo
[3] = Acute oral toxicity, male rats; settings: rat, in vivo
[4] = system: warm-blooded animals; experiment: Toxicity to warm-blooded animals compared to DDVP; assay type: in vivo
[5] = system: Musca domestica; experiment: Aerosol test (knock-down of 50% of the animals, LT50); assay type: in vivo; settings: comparison experiment, Example 1
Experimental: The following examples explain the invention in more detail, with "parts" denoting parts by weight.
Test animals: Musca domestica
To produce a suitable preparation of active compound, the active compound was mixed, at a range of concentrations, with the stated solvent.
A wire cage which contained about 25 test animals was suspended in the centre of a gas-tight glass chamber of size 1 m^3. After the chamber had been closed again, 2 ml of the preparation of active compound were atomised in the chamber. The condition of the test animals was constantly checked from outside, through the glass walls, and the time required for a knock-down effect on 50% of the animals was determined.
The active compounds, amounts used and time after which 50% of the animals were lying on their backs (LT50) can be seen from the table which follows: […]

[6] = age of the shaped pieces 0 weeks
[7] = age of the shaped pieces 4 weeks
[8] = age of the shaped pieces 8 weeks
[9] = age of the shaped pieces 12 weeks

Row | SMILES | percentage of animals lying on their backs after one hour [1, 6] [percentage] | percentage of animals lying on their backs after one hour [1, 7] [percentage] | percentage of animals lying on their backs after one hour [1, 8] [percentage] | percentage of animals lying on their backs after one hour [1, 9] [percentage] | LC50 male rats, acute inhalation toxicity [2] [mg/m^3] | LD50 [3] [mg/kg] | toxicity to warm-blooded animals compared to DDVP [4] | tolerance of the maximum possible concentration, acute inhalation toxicity ([2]; 477 mg/m^3, maximum possible in the experiment) | insecticidal action compared to DDVP [5]
1 | COP(=O)(OC)OC=C(Cl)Cl [DDVP, dimethyl-2,2-dichlorovinyl phosphate, reference compound] | 80 | 70 | 60 | 20 | 340 | 62 | – | – | –
2 | COP(=S)(OC)OC=C(Cl)Cl [Thio-DDVP, dimethyl-2,2-dichlorovinyl thiophosphate] | 100 | 95 | 90 | 50 | > 477 | 773 | lower toxicity to warm-blooded animals | tolerated without symptoms | poorer insecticidal action
